The values below come from patent US4921984A, “Novel platinum complexes” (Nippon Kayaku Kabushiki Kaisha, priority 1985, dated 1990).

Data set [1] deals with mouse leukemia L1210 cells. The data set is described as follows: Growth inhibition test on cultured mouse leukemia L1210 cells. The data set is classed as cell-based. Conditions: RPMI 1640 with 10% fetal calf serum. The method, then: Mouse leukemia L1210 cells were cultured in a RPMI 1640 medium containing 10% of fetal calf serum.
A further data set concerns mouse leukemia L1210. The data set is described as follows: Antitumor activity test on mouse leukemia L1210 in vivo. The settings on record: for max (T/C): L1210, average survival time treated/control ×100, i.p. once a day for 5 days; for Opt. dose: L1210, dose giving max (T/C); for Opt. dose / LD50: i.p. once a day for 5 days; for LD50: L1210-bearing CDF1 mice. The method, then:
Mice of compound-non-treated group (control group) were administered with physiological saline solution in the same manner. The average survival times of the compound-treated group and the control group (abbreviated as T and C, respectively) were measured and T/C percentage (T/C×100) was calculated from the following equation. [formula]
In Table 4, max (T/C) means the maximum value of T/C and optimum dose (opt. dose) means an administration amount giving the max namely, an optimum administration amount.

For data set [2], the system named is mouse leukemia P388 cells. The data set is described as follows: Antitumor activity test in vivo, mouse leukemia P388. Conditions: for Opt. dose: P388, i.p. once a day for 5 days; for Max (T/C): P388, median survival time, i.p. once a day for 5 days. As for the experimental part:
(§1) 1×10^6 mouse leukemia P388 cells were inoculated into the abdominal cavities of 6-week-old female CDF1 mice, and from the next day a compound No. 15 was administered to them intraperitoneally once a day for 5 consecutive days. Separately, 1×10^6 mouse lung cancer Lewis lung carcinoma (LL) cells were inoculated into the abdominal cavities of male BDFl mice, and from the next day a compound No. 15 was administered to them intraperitoneally once a day for 5 consecutive days. Separately, 1×10^6 mouse fibrosarcoma M5076 cells were inoculated into the body sides of female C57BL/6 mice subcutaneously, and from the next day a compound No. 15 was administered to them intraperitoneally. Separately, 1×10^6 mouse colon cancer (colon 26) cells were inoculated into the abdominal cavities of female CDF1 mice, and from the next day a compound No. 15 was administered to them intraperitoneally. To respective control groups (compound-non-treated groups), physiological saline solution was administered.
(§2) From the survival times of the compound-treated group and the control group, respective median values (median survival times) were calculated. Using these values, T/C percentage was calculated from the following equation. [formula]

Data set [3] concerns mouse lung cancer Lewis lung carcinoma (LL) cells. The data set is described as follows: Antitumor activity test in vivo, Lewis lung carcinoma (LL). The settings on record: i.p. once a day for 5 days; for Max (T/C): median survival time. As for the experimental part:
as §1, §2

A short description of the next data set: Test for renal toxicity. Conditions: mouse, in vivo. As for the experimental part:
A compound was administered one time to 6-week-old male CDFl mice intraperitoneally. After 4 days, their blood was collected for measurement of blood urea nitrogen concentration (BUN value).
In Table 6, body weight ratio is a ratio of body weight after 4 days from administration to body weight of administration day.

Another data set relates to various tumor cells. The data set is described as follows: Antitumor activity on various tumors (general statement). The data set is classed as in vivo, mouse. Conditions: in words. As for the experimental part: as §1, §2
For data set [4] the following is noted: rate, in words; prior art; cited from earlier work.
Data set [5] relates to cis-Platin resistant mouse leukemia L1210 cells. The data set is described as follows: Growth inhibition test on cis-Platin resistant L1210 tumor cells. The data set is classed as cell-based. Conditions: ratio of IC50 on cis-Platin resistant to non-resistant L1210 cells. From the text: (§3) 1×10^5 mouse leukemia L1210 cells or 1×10^5 mouse leukemia P388 cells were inoculated into the abdominal cavities of CDF1 female mouse. […] After 5 days, their tumor cells were inoculated to the abdominal cavities of other CDF1 female mouse, and the same treatment was applied.

In data set [6] the test system is cis-Platin resistant mouse leukemia P388 cells. Nature of the data set: Growth inhibition test on cis-Platin resistant P388 tumor cells. The class given is cell-based. Conditions: ratio of IC50 on cis-Platin resistant to non-resistant P388 cells.
Source text: as §3

The subject of data set [7] is mouse fibrosarcoma M5076 cells. The data set is described as follows: Antitumor activity test in vivo, fibrosarcoma M5076. Conditions: M5076 inoculated s.c., i.p. administration. As for the experimental part:
as §1, §2

In data set [8] the test system is mouse colon cancer (colon 26) cells. Nature of the data set: Antitumor activity test in vivo, colon 26. The method, then:
as §1, §2

As usually defined, the IC50 is the concentration that inhibits the measured activity by half. High values mean a need for much substance, low ones inhibition by little substance. In general, LD50 refers to the dose expected to kill half of the subjects tested. `C[C@H]1CC[NH2+][Pt-2]2([NH2+]C1)[O]C(=O)C1(CCC1)C(=O)[O]2` [15S, cis-cyclobutane-1,1-dicarboxylato-S-2-methyl-1,4-butanediamine platinum]: the Solubility in water is > 15000 µg/mL. Besides, in data set [1], the IC50 stood at 1.08 µg/mL. In the data set with mouse leukemia L1210, the “max (T/C)” value worked out at 206%, the Opt. dose is 32 mg/kg and the LD50 stood at 48.0 mg/kg. In data set [2], the Opt. dose came out at 40 mg/kg and the “Max (T/C)” value worked out at 253%. Besides, in data set [3], the Opt. dose is 50 mg/kg and the “Max (T/C)” value amounted to 164%. In addition, the renal toxicity result in “Test for renal toxicity” is “very low renal toxicity”. For the same molecule, the antitumor effect result in the data set with various tumor cells was “excellent antitumor activities on various tumor cells”.

With `N.N.[Cl][Pt][Cl]` [cis-Platin, cis-dichlorodiammineplatinum, reference compound], the Opt. dose in the data set with mouse leukemia L1210 is reported as 4 mg/kg. Besides, the dissolution in water entry in [4] was “dissolving in water slowly”.

Take `CCC(N)CCCN.O=C([O-])C1(C(=O)[O-])CCC1.[Pt+2]` [Compound No. 11, cis-Cyclobutane-1,1-dicarboxylato-1-ethyl-1,4-butanediamine platinum]: the Solubility in water was > 3000 µg/mL. The molecule also gave an IC50 in [1] of 4.70 µg/mL. In addition, in the data set with mouse leukemia L1210, the “max (T/C)” value worked out at 139% and the Opt. dose is 64 mg/kg.

For the molecule `CC1CC[NH2+][Pt-2]2([NH2+]C1)[O]C(=O)C1(CCC1)C(=O)[O]2` (racemic) [Compound No. 15, cis-Cyclobutane-1,1-dicarboxylato-2-methyl-1,4-butanediamine platinum], the Solubility in water is > 8000 µg/mL. Further, the IC50 in data set [1] came out at 1.20 µg/mL. Moreover, the “IC50 R/IC50, Tumor cell L1210” value in data set [5] was 3.19. In data set [6], the “IC50 R/IC50, Tumor cell P388” value turned out to be 3.26. In the data set on mouse leukemia L1210, the “max (T/C)” value is reported as 182%, the Opt. dose was 32 mg/kg and the LD50 is given as 80.0 mg/kg. In [2], the Opt. dose worked out at 32 mg/kg and the “Max (T/C)” value is 260%. In [3], the Opt. dose came to 32 mg/kg and the “Max (T/C)” value is listed as 222%. Moreover, the Opt. dose in data set [7] came to 16 mg/kg. Also, the “Max (T/C)” value in data set [7] (median survival time) was 152%. In data set [8] (Colon 26, i.p. administration), this molecule displayed an Opt. dose of 32 mg/kg. Also, the “Max (T/C)” value in data set [8] (Colon 26, median survival time, i.p. administration) stood at 198%.

Turning to `CC1(C)CC[NH2+][Pt-2]([Cl])([Cl])[NH2+]C1` [Compound No. 19, cis-Dichloro-2,2-dimethyl-1,4-butanediamine platinum], the “Solubility in physiological saline solution” value is recorded as > 2 mg/ml. The concentration for half-maximal inhibition (IC50) in [1] stood at 0.20 µg/mL. In addition, in the data set with mouse leukemia L1210, the “max (T/C)” value was found to be 359%, the Opt. dose was 4 mg/kg and the LD50 stood at 6.0 mg/kg.

With `CC1(C)CC[NH2+][Pt-2]2([NH2+]C1)[O]C(=O)C1(CCOCC1)C(=O)[O]2` [Compound No. 23, cis-4-Oxacyclohexane-1,1-dicarboxylato-2,2-dimethyl-1,4-butanediamine platinum], the Solubility in water was > 3000 µg/mL. In data set [1], this molecule registered an IC50 of 0.44 µg/mL. For the same molecule, in the data set on mouse leukemia L1210, the “max (T/C)” value turned out to be 159% and the Opt. dose is reported as 32 mg/kg.

`C[C@@H](CN)CCN.O=C([O-])C1(C(=O)[O-])CCC1.[Pt+2]` (stereo in doubt) [15R, cis-cyclobutane-1,1-dicarboxylato-R-2-methyl-1,4-butanediamine platinum]: the Solubility in water is > 15000 µg/mL. This molecule also gave an IC50 in data set [1] of 0.78 µg/mL. Moreover, in the data set on mouse leukemia L1210, the “max (T/C)” value came out at 189%, the Opt. dose is reported as 32 mg/kg and the LD50 is on record as 33.6 mg/kg. Moreover, in data set [2], the Opt. dose worked out at 20 mg/kg and the “Max (T/C)” value amounted to 253%. In [3], the Opt. dose turned out to be 30 mg/kg and the “Max (T/C)” value was found to be 166%. Moreover, in “Test for renal toxicity”, the renal toxicity result was “very low renal toxicity”. Besides, the antitumor effect entry in the data set on various tumor cells was “excellent antitumor activities on various tumor cells”.

Turning to `O=C1[O][Pt-2]2([NH2+]CCCC[NH2+]2)[O]C(=O)C12CCOCC2` [Compound No. 3, cis-4-Oxacyclohexane-1,1-dicarboxylato-1,4-butanediamine platinum], the Solubility in water was > 10000 µg/mL. In data set [1], this molecule displayed a half-inhibitory concentration (IC50) of 0.65 µg/mL. Besides, in the data set with mouse leukemia L1210, the “max (T/C)” value is reported as 132%, the Opt. dose turned out to be 8 mg/kg and the 50% lethal dose (LD50) was determined as 8.4 mg/kg.

With `CC1(C)CCC[NH2+][Pt-2]([Cl])([Cl])[NH2+]1` [Compound No. 25, cis-Dichloro-1,1-dimethyl-1,4-butanediamine platinum], the “Solubility in physiological saline solution” value is on record as > 2 mg/ml. Further, the IC50 in data set [1] came out at 0.25 µg/mL. In the data set with mouse leukemia L1210, the “max (T/C)” value worked out at 150%, the Opt. dose is reported as 2 mg/kg and the LD50 came out at 3.0 mg/kg.

In the case of `CCC1CCC[NH2+][Pt-2]([Cl])([Cl])[NH2+]1` (racemic) [Compound No. 10, cis-Dichloro-1-ethyl-1,4-butanediamine platinum], the “Solubility in physiological saline solution” value is > 2 mg/ml. The molecule further registered an IC50 in data set [1] of 0.35 µg/mL. Further, in the data set on mouse leukemia L1210, the “max (T/C)” value worked out at 210%, the Opt. dose was 4 mg/kg and the median lethal dose (LD50) is reported as 6.0 mg/kg.

On to `CCC1C(=O)[O][Pt-2]2([NH2+]CCC(C)C[NH2+]2)[O]C1=O` (racemic) [Compound No. 18, cis-Ethylmalonato-2-methyl-1,4-butanediamine platinum], for which the Solubility in water is > 10000 µg/mL. Moreover, the concentration for half-maximal inhibition (IC50) in data set [1] is 0.84 µg/mL. Further, in the data set on mouse leukemia L1210, the “max (T/C)” value was found to be 264%, the Opt. dose stood at 16 mg/kg and the LD50 is listed as 24.0 mg/kg.

Turning to `[Cl][Pt-2]1([Cl])[NH2+]CCCC[NH2+]1` [Compound No. 1, cis-Dichloro-1,4-butanediamine platinum], the “Solubility in physiological saline solution” value was > 2 mg/ml. This molecule also returned an IC50 in [1] of 0.33 µg/mL. Besides, in the data set on mouse leukemia L1210, the “max (T/C)” value is listed as 203%, the Opt. dose was 2 mg/kg and the LD50 is 4.8 mg/kg.

For the molecule `CC1CC[NH2+][Pt-2]([Cl])([Cl])[NH2+]C1` (racemic) [Compound No. 13, cis-Dichloro-2-methyl-1,4-butanediamine platinum], the “Solubility in physiological saline solution” value is given as > 2 mg/ml. For the same molecule, in [1], the IC50 amounted to 0.10 µg/mL. For the same molecule, in the data set with mouse leukemia L1210, the “max (T/C)” value is listed as 187%, the Opt. dose was determined as 2 mg/kg and the LD50 is recorded as 4.2 mg/kg.

As for `CC(C)(CN)CCN.O=C([O-])C1(C(=O)[O-])CCC1.[Pt+2]` [Compound No. 22, cis-Cyclobutane-1,1-dicarboxylato-2,2-dimethyl-1,4-butanediamine platinum], the Solubility in water was > 3000 µg/mL. In data set [1], the IC50 came out at 2.20 µg/mL. Moreover, in the data set on mouse leukemia L1210, the “max (T/C)” value is 320% and the Opt. dose came out at 128 mg/kg.
